The values that follow come from patent US8119635B2, “Diazabicyclic central nervous system active agents” (Abbott Laboratories, priority 2000, dated 2012).

As a reminder, the Ki is the equilibrium dissociation constant of an inhibitor or competing ligand from its target.

Structures are written as SMILES. Structures can show the parent of a compound that is named as a salt. Where two headings read alike, the source gives them in different places.

In assay [1] the target is T1, neuronal nicotinic acetylcholine receptors (Rattus norvegicus, UniProt P09483+P12390).
T1 construct: crude synaptic membrane preparations from whole rat brain; from tissue; host or cells: whole rat brain, crude synaptic membranes
The assay can be described thus: Binding of [3H]-cytisine to neuronal nicotinic acetylcholine receptors, crude synaptic membranes from whole rat brain. Here is the method: The In Vitro protocols for determination of nicotinic acetylcholine channel receptor binding potencies of ligands were determined as follows.
Washed membranes were stored at −80° C. prior to use. Frozen aliquots were slowly thawed and resuspended in 20 volumes of buffer (containing: 120 mM NaCl, 5 mM KCl, 2 mM MgCl2, 2 mM CaCl2 and 50 mM Tris-Cl, pH 7.4 @[…]). After centrifuging at 20,000×g for 15 minutes, the pellets were resuspended in 30 volumes of buffer.
The test compounds were dissolved in water to make 10 mM stock solutions. Each solution was then diluted (1:100) with buffer (as above) and further taken through seven serial log dilutions to produce test solutions from 10^−5 to 10^−11 M.
Samples were incubated for 60 minutes at 4° C., then rapidly filtered through Whatman GF/B filters presoaked in 0.5% polyethyleneimine using 3×4 mL of ice-cold buffer. The filters are counted in 4 mL of Ecolume® (ICN). Nonspecific binding was determined in the presence of 10 μM (−)-nicotine and values were expressed as a percentage of total binding. IC50 values were determined with the RS-1 (BBN) nonlinear least squares curve-fitting program and IC50 values were converted to Ki values using the Cheng and Prusoff correction (Ki=IC50/(1+[ligand]/Kd of ligand).

Another assay relates to Male Sprague-Dawley rats. As to the kind of experiment: Formalin test (analgesia). To be noted: Rattus norvegicus, ip, intraperitoneally 5 minutes before injection of 50 μL 5% formalin into rear paw, nocifensive behaviors, read-out: (MED) minimally effective dose, formalin test. The class given is in vivo. The procedure: Another in vivo protocol utilized to determine the effectiveness of nicotinic acetylcholine receptor ligands as analgesic agents was the formalin test.
Male Sprague-Dawley rats (Charles River, Portage, Mich.) weighing 200 to 400 grams were used for all experiments. After a 20 minute period of acclimation to individual cages, 50 μL of a 5% formalin solution was injected subcutaneous into the dorsal aspect of one of the rear paws and the rats were then returned to the clear observation cages suspended above mirror panels. […] Phase 1 of the formalin test was defined as the period of time immediately after injection of formalin until 10 minutes after the formalin injection (i.e., 0-10 minutes after formalin). Phase 2 was defined as the 20 minute period from 30 to 50 minutes after formalin injection. The investigator recorded nocifensive behaviors in the injected paw of four animals during the session by observing each animal for one 15 second observation period during each 1 minute interval. Nocifensive behaviors recorded included flinching, licking or biting the injected paw. In dose-response studies, the test compound (or saline) was administered intraperitoneally 5 minutes before injection of formalin.

[2] abbreviates: [3H]-CYT 1.25 nM, whole rat brain membranes, 60 minutes at 4° C., IC50 converted to Ki by Cheng and Prusoff correction, read-out: Average Ki.

T1 sequence (P09483 31-630): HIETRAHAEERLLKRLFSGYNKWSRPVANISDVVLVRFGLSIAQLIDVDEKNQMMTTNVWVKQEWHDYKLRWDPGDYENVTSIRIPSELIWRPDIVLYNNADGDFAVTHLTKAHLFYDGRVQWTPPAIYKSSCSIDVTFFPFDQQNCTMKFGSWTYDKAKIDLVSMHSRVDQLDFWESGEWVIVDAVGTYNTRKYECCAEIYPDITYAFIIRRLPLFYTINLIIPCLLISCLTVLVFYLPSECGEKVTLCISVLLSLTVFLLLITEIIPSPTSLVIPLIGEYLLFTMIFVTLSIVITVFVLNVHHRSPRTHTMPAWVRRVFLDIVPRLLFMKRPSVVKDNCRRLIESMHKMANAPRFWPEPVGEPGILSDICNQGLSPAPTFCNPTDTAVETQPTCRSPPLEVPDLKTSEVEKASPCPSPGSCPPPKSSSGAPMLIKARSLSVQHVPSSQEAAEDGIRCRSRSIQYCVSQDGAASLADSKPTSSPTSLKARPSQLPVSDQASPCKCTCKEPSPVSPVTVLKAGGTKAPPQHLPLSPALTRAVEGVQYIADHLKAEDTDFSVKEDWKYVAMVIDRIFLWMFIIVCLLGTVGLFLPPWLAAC
T1 sequence (P12390 25-500): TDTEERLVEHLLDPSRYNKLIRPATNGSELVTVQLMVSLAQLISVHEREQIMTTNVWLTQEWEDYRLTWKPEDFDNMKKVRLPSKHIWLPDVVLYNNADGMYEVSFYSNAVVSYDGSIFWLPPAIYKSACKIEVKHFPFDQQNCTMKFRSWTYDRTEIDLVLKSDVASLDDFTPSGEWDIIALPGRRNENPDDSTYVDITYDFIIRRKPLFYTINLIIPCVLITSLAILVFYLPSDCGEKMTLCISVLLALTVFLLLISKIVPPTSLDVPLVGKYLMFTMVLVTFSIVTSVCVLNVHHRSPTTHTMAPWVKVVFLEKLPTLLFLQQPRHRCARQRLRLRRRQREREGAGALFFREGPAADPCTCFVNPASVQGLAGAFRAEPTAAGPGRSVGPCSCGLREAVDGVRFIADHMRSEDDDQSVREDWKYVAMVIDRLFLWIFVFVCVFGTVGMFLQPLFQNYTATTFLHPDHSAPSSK

On to `c1cncc(N2C[C@@H]3CN[C@@H]3C2)c1` (relative stereo) [Example 38, (cis)-3-(3-pyridinyl)-3,6-diazabicyclo[3.2.0]heptane bis(4-methylbenzenesulfonate)], for which the inhibition constant (Ki) in assay [1] came out at 0.16 nM. Also, the minimal effective dose in the assay on Male Sprague-Dawley rats is greater than 6.2 µmol/kg.

For `Clc1ccc(N2C[C@@H]3CN[C@@H]3C2)cn1` (relative stereo) [Example 41, (cis)-3-(6-chloro-3-pyridinyl)-3,6-diazabicyclo[3.2.0]heptane fumarate], the Ki in assay [1] came out at 1.9 nM. Moreover, the minimal effective dose in the assay on Male Sprague-Dawley rats was greater than 1.9 µmol/kg.

For `c1cncc(N2C[C@@H]3CCNC[C@@H]32)c1` (relative stereo) [Example 44, (cis)-8-(3-pyridinyl)-3,8-diazabicyclo[4.2.0]octane bis(4-methylbenzenesulfonate)], in assay [1], the inhibition constant (Ki) worked out at 0.23 nM. For the same compound, in the assay with Male Sprague-Dawley rats, the minimal effective dose was determined as 6.2 µmol/kg.

In turn, `N#Cc1cncc(N2CC[C@H]3CN[C@H]3C2)c1` (relative stereo) [Example 62, (cis)-5-[3,8-diazabicyclo[4.2.0]oct-3-yl]nicotinonitrile fumarate] yielded a Ki in assay [1] of 0.1 nM. Also, the minimal effective dose in the assay with Male Sprague-Dawley rats is 0.19 µmol/kg.

Compound `C#Cc1cncc(N2C[C@H]3CCN[C@H]3C2)c1` [Example 35, (3aR,6aR)-5-(5-ethynyl-3-pyridinyl)octahydropyrrolo[3,4-b]pyrrole hydrochloride dihydrochloride] gave a Ki in assay [1] of 0.13 nM. For the same compound, the minimal effective dose in the assay with Male Sprague-Dawley rats came to 1.9 µmol/kg.

In the case of `Brc1cncc(N2C[C@H]3CCN[C@H]3C2)c1` [Example 36, (3aR,6aR)-5-(5-bromo-3-pyridinyl)octahydropyrrolo[3,4-b]pyrrole dihydrochloride], the Ki in assay [1] is 0.17 nM. Also, the minimal effective dose with Male Sprague-Dawley rats came out at 6.2 µmol/kg.

Take `N#Cc1cncc(N2C[C@H]3CCN[C@H]3C2)c1` [Example 37, 5-((3aR,6aR)-hexahydropyrrolo[3,4-b]pyrrol-5(1H)-yl)nicotinonitrile]: the Ki in assay [1] was found to be 1.2 nM. Also, in the assay with Male Sprague-Dawley rats, the minimal effective dose came out at 6.2 µmol/kg.

On to `c1cncc(N2CC3CNCC32)c1` (stereo not drawn) [Example 40, (cis)-6-(3′-pyridinyl)-3,6-diazabicyclo[3.2.0]heptane fumarate], for which the inhibition constant (Ki) in assay [1] came out at 6.2 nM. Also, the minimal effective dose in the assay with Male Sprague-Dawley rats came to 1.9 µmol/kg.

For the compound `COc1cc(N2C[C@H]3CCN[C@H]3C2)cnc1Br` [Example 43, (3aR,6aR)-5-(6-bromo-5-methoxy-3-pyridinyl)octahydropyrrolo[3,4-b]pyrrole], the inhibition constant Ki in assay [1] is 0.3 nM. Further, the minimal effective dose in the assay on Male Sprague-Dawley rats worked out at 6.2 µmol/kg.

For the compound `Clc1ccc(N2C[C@H]3CCNC[C@H]32)cn1` [Example 47, (1S,6R)-8-(6-chloro-3-pyridinyl)-3,8-diazabicyclo[4.2.0]octane difumarate], in assay [1] (setting [2]), the inhibitory constant (Ki) was 0.8 nM. The minimal effective dose in the assay on Male Sprague-Dawley rats came to 1.9 µmol/kg.

`N#Cc1cncc(N2C[C@H]3CCNC[C@H]32)c1` [Example 61, 5-[(1S,6R)-3,8-diazabicyclo[4.2.0]oct-8-yl]nicotinonitrile fumarate]: in assay [1], the affinity, expressed as Ki, was 2.5 nM.

`N#CCc1cc(N2C[C@H]3CCN[C@H]3C2)cnc1Br` [Example 66, [5-((3aR,6aR)-hexahydropyrrolo[3,4-b]pyrrol-5(1H)-yl)-2-bromo-3-pyridinyl]acetonitrile fumarate]: the affinity in assay [1] corresponds to a Ki of 0.26 nM.

For the compound `Clc1ccc(N2CC[C@@H]3CNC[C@@H]32)cn1` [Example 73, (3aR,6aR)-1-(6-chloro-3-pyridinyl)octahydropyrrolo[3,4-b]pyrrole fumarate], in assay [1], the affinity corresponds to a Ki of 24 nM.

In assay [1], `c1cncc(N2CC[C@@H]3CNC[C@@H]32)c1` [Example 75, (3aR,6aR)-1-(3-pyridinyl)octahydropyrrolo[3,4-b]pyrrole fumarate] had a Ki of 6.9 nM.

In assay [1], `Clc1ccc(N2CC[C@H]3CNC[C@H]32)cn1` [Example 77, (3aS,6aS)-1-(6-chloro-3-pyridinyl)octahydropyrrolo[3,4-b]pyrrole fumarate] displayed a Ki of 19 nM.

Turning to `c1cncc(N2CC[C@H]3CNC[C@H]32)c1` [Example 78, (3aS,6aS)-1-(3-pyridinyl)octahydropyrrolo[3,4-b]pyrrole dihydrochloride], in assay [1], the Ki turned out to be 25 nM.

Turning to `N#Cc1cncc(N2C[C@H]3CN[C@H]3C2)c1` [Example 79, 5-[(1R,5R)-3,6-diazabicyclo[3.2.0]hept-3-yl]nicotinonitrile fumarate], in assay [1], the inhibition constant (Ki) came out at 0.12 nM.

On to `Clc1ccc(N2C[C@H]3CN[C@H]3C2)cn1` [Example 80, (1R,5R)-3-(6-chloro-3-pyridinyl)-3,6-diazabicyclo[3.2.0]heptane fumarate], for which affinity in assay [1] was put at a Ki of 0.17 nM.

In assay [1], `N#Cc1cncc(N2CC[C@@H]3CNC[C@@H]32)c1` [Example 81, 5-((3aR,6aR)-hexahydropyrrolo[3,4-b]pyrrol-1(2H)-yl)nicotinonitrile] displayed a Ki of 11 nM.

For the compound `Oc1cncc(N2CC[C@H]3CNC[C@H]32)c1` [Example 82, (3aS,6aS)-1-(5-hydroxy-3-pyridinyl)octahydropyrrolo[3,4-b]pyrrole dihydrochloride], the Ki in assay [1] (setting [2]) was 363 nM.

Consider `N#Cc1cncc(N2CC[C@H]3CNC[C@H]32)c1` [Example 83, 5-((3aS,6aS)-hexahydropyrrolo[3,4-b]pyrrol-1(2H)-yl)nicotinonitrile fumarate], for which the Ki in assay [1] is 97 nM.

As for `COc1cncc(N2C[C@H]3CCNC[C@H]32)c1` [Example 88, (1S,6R)-8-(5-methoxy-3-pyridinyl)-3,8-diazabicyclo[4.2.0]octane fumarate], in assay [1] (setting [2]), the inhibition constant Ki is 0.56 nM.

Regarding `Cc1cc(N2C[C@H]3CCNC[C@H]32)cnc1Cl` [Example 89, (1S,6R)-8-(6-chloro-5-methyl-3-pyridinyl)-3,8-diazabicyclo[4.2.0]octane fumarate], in assay [1] (setting [2]), the Ki was determined as 0.24 nM.

For the compound `Cc1cc(N2C[C@@H]3CCNC[C@@H]32)cnc1Cl` [Example 90, (1R,6S)-8-(6-chloro-5-methyl-3-pyridinyl)-3,8-diazabicyclo[4.2.0]octane fumarate], the Ki in assay [1] is 0.04 nM.

With `c1cncc(N2C[C@H]3CCNC[C@H]32)c1` [Example 91, (1S,6R)-8-(3-pyridinyl)-3,8-diazabicyclo[4.2.0]octane 4-methylbenzenesulfonate], in assay [1] (setting [2]), the inhibitory constant (Ki) worked out at 1.1 nM.

Regarding `c1cncc(N2C[C@@H]3CCNC[C@@H]32)c1` [Example 92, (1R,6S)-8-(3-pyridinyl)-3,8-diazabicyclo[4.2.0]octane 4-methylbenzenesulfonate], the Ki in assay [1] (setting [2]) turned out to be 0.12 nM.

For `Clc1cc(N2C[C@H]3CCNC[C@H]32)cnc1Cl` [Example 93, (1S,6R)-8-(5,6-dichloro-3-pyridinyl)-3,8-diazabicyclo[4.2.0]octane 4-methylbenzenesulfonate], the Ki in assay [1] (setting [2]) turned out to be 0.3 nM.

As to `Clc1cc(N2C[C@@H]3CCNC[C@@H]32)cnc1Cl` [Example 94, (1R,6S)-8-(5,6-dichloro-3-pyridinyl)-3,8-diazabicyclo[4.2.0]octane 4-methylbenzenesulfonate], in assay [1] (setting [2]), the Ki was determined as 0.12 nM.

The compound `COc1cc(N2C[C@H]3CNC[C@H]32)cnc1Br` [Example 95, (1R,5S)-6-(6-bromo-5-methoxy-3-pyridinyl)-3,6-diazabicyclo[3.2.0]heptane 4-methylbenzenesulfonate] registered a Ki in assay [1] of 0.12 nM.

In turn, `[N-]=[N+]=Nc1cncc(N2C[C@H]3CNC[C@H]32)c1` [Example 96, (1R,5S)-6-(5-azido-3-pyridinyl)-3,6-diazabicyclo[3.2.0]heptane fumarate] registered an inhibition constant Ki in assay [1] of 1.9 nM.
